Test results: patent US20130065964A1, “PERITONEAL DIALYSIS SOLUTION” (UNIVERSIDAD DE CASTILLA LA MANCHA, priority 2010, published 2013)

What was measured:
Experiment in all cases: Real-time RT-PCR in PMCs from dialysed rats
Format in all cases: in vivo, rat
Collagen III = conditions: peritoneal cells from rats dialysed four weeks, aliskiren 0.1 or 1 mg/Kg, FIG. 18
Method: (§1) The rats were exposed daily for four weeks to carrier (saline serum), 1.5% PDF, 2.3% PDF or 4.5% PDF supplemented by carrier, 0.1 mg/Kg aliskiren or 1 mg/Kg aliskiren. The data is expressed as mean±SEM, n=6 rats per group. * p<0.05, compared to the group treated with carrier in the absence of aliskiren (carrier). # p<0.05, compared to their respective groups treated with PDFs in the absence of aliskiren.
(§2) For in vivo studies, 78 female rats of the Sprague-Dawley female strain weighing 200-240 g (Charles River Breeding Laboratories) were used: fifty-four rats were assigned to the group of animals which had been administered high-glucose peritoneal dialysis solutions (PDF), which were divided into three different subgroups with eighteen rats each which were administered, respectively, three PDFs having different glucose concentrations (Fresenius Medical Car, Bad Homburg, Germany). Additionally, eighteen rats were administered a carrier (saline serum) and another six rats were used as a control group (not dialysed). […]
(§3) At the end of the experimental period (four weeks), 30 ml of a commercial PDF with 2.3% glucose (Fresenius Medical Car, Bad Homburg, Germany) was administered intraperitoneally using a 22G needle. […] Their body weight was measured at the start and end of the experimental period. […]
(§4) The blood and dialysate samples were centrifuged and stored at −20° C. The concentrations of creatinine and glucose in the serum and dialysate were measured using enzymatic methods. The peritoneal transport of solutes was calculated, on one hand, as the glucose concentration in the dialysate 2 hours after the PET relative to the initial glucose concentration in the PDF (D2/D0 glucose) and, on the other, as the dialysate/plasma creatinine concentration ratio (D2/P2 creatinine) 2 h after the PET. […]
(§5) The RNA expression was evaluated by real-time RT-PCR in PMCs. […] RNA quality and concentration was evaluated by spectrophotometry (Infinite 200, Tecan, Salzburg, Austria) using 1 μl of the RNA sample. […]

Bcl-2 = conditions: peritoneal cells from rats dialysed four weeks, aliskiren 0.1 or 1 mg/Kg, FIG. 16
Method: as §1, §2, §3, §4, §5

BAX = conditions: peritoneal cells from rats dialysed four weeks, aliskiren 0.1 or 1 mg/Kg, FIG. 15
Method: as §1, §2, §3, §4, §5

In the case of `COCCCOc1cc(C[C@@H](C[C@H](N)[C@@H](O)C[C@H](C(=O)NCC(C)(C)C(N)=O)C(C)C)C(C)C)ccc1OC` [aliskiren], the “RNAm expression of collagen III” value (Collagen III) is reported as “increased”, the “RNAm expression of anti-apoptotic protein Bcl-2” value (Bcl-2) is reported as “increased” and the “RNAm expression of pro-apoptotic protein Bax” value (BAX) is reported as “reduced”.
